Read-outs that look alike come from different tables or passages of the source.
Tests used:
[1] = system: patients with HD
Experimental: The study also compared data from all patients to those obtained in HD subpopulations.
The primary efficacy variable and endpoint for this study was change from baseline in the UHDRS TMS (defined as the sum of all UHDRS motor domains ratings) at Week 26 or Week 52. The primary measure of motor impairment is the UHDRS motor assessment section, which was administered by a trained examiner. The first part of the motor assessment consisted of five TMS subscores, provided below. The sum total of all the 31 items is referred to as the Total Motor Score (TMS). The secondary efficacy variable and endpoint was change from baseline in the mPPT at Week 26 or Week 52.
It is a research tool which has been developed to provide a uniform assessment of the clinical features and course of HD. The TMS component of UHDRS comprises 31 assessments from the 15 items of the UHDRS, with each assessment rated on a 5-point scale from 0 (normal) to 4 (maximally abnormal).
The change from baseline in UHDRS-TMS was analyzed using a Repeated Measures model (SAS® MIXED procedure with REPEATED sub-command). The model includes the following fixed effects: categorical week in study by treatment interaction, center, neuroleptic use or no use, and baseline UHDRS-TMS score. The unstructured covariance matrix for repeated observations within patients was used.

[2] = system: patients with HD; details: for PBA Irritability, Severity×Frequency, change from baseline, Δ to placebo: p value 0.0165
Experimental: The PBA-s is a brief semi-structured interview covering the most common behavioral and psychiatric manifestations of HD. […] Severity and frequency scores are multiplied to produce an overall ‘PBA score’ for each symptom.
The PBA-s is a brief semi-structured interview covering the most common behavioral and psychiatric manifestations of HD.
The total PBA score is calculated by the sum of all PBA-s scores across symptoms/domains.

[3] = 45 mg bid, Week 26, Stage 1 BL TFC 11-13
[4] = 67.5 mg bid, Week 26, Stage 1 BL TFC 11-13

## CCCN1CCC(c2cccc(S(C)(=O)=O)c2)CC1 [pridopidine, 4-[3-(methylsulfonyl)phenyl]-1-propyl-piperidine]
[1]; 45 mg bid (FIG. 5a)
  TMS change from baseline versus historical placebo in HART and MermaiHD: significant
[1]; 45 mg bid, HD1 patients, after 52 weeks (FIG. 45b)
  Change from baseline in TMS plotted over time: shows improvement in TMS score
[1]; 45 mg bid, Week 26, ALL
  Change from baseline in UHDRS TMS, Δ to placebo: 1.42
[1]; [3]
  Change from baseline in UHDRS TMS, Δ to placebo: −4.47
[1]; 45 mg bid, Week 52, ALL
  Change from baseline in UHDRS TMS, Δ to placebo: 0.59
[1]; 45 mg bid, Week 52, Stage 1 BL TFC 11-13
  Change from baseline in UHDRS TMS, Wk52 Δ to placebo: −5.32
[1]; 67.5 mg bid, Week 26, ALL
  Change from baseline in UHDRS TMS, Δ to placebo: 1.71
[1]; [4]
  Change from baseline in UHDRS TMS, Δ to placebo: −3
[1]; 67.5 mg bid, Week 52, ALL
  Change from baseline in UHDRS TMS, Δ to placebo: 2.55
[1]; 67.5 mg bid, Week 52, Stage 1 BL TFC 11-13
  Change from baseline in UHDRS TMS, Wk52 Δ to placebo: −0.84
[1]; 90 mg bid (FIG. 5a)
  TMS change from baseline versus historical placebo in HART and MermaiHD: significant
[1]; 90 mg bid, Week 26, ALL
  Change from baseline in UHDRS TMS, Δ to placebo: 0.67
[1]; 90 mg bid, Week 26, BL TFC 11-13 (HD1), read from FIG. 8b
  UHDRS TMS score at week 26 compared to baseline: about −8
[1]; 90 mg bid, Week 26, Stage 1 BL TFC 11-13
  Change from baseline in UHDRS TMS, Δ to placebo: −6.15
[1]; 90 mg bid, Week 52, ALL
  Change from baseline in UHDRS TMS, Δ to placebo: 1.78
[1]; 90 mg bid, Week 52, Stage 1 BL TFC 11-13
  Change from baseline in UHDRS TMS, Wk52 Δ to placebo: −7.1
[1]; 90 mg bid, weeks 4-26 (FIG. 3)
  Total Motor Score (TMS) Change from Baseline: largest treatment effect
[1]; 112.5 mg bid, Week 26, ALL
  Change from baseline in UHDRS TMS, Δ to placebo: 2.1
[1]; 112.5 mg bid, Week 26, Stage 1 BL TFC 11-13
  Change from baseline in UHDRS TMS, Δ to placebo: −4.79
[1]; 112.5 mg bid, Week 52, ALL
  Change from baseline in UHDRS TMS, Δ to placebo: 2.71
[1]; 112.5 mg bid, Week 52, Stage 1 BL TFC 11-13
  Change from baseline in UHDRS TMS, Wk52 Δ to placebo: −0.92
[1]; PRIDE-HD, 45 mg to 112.5 mg bid
  primary endpoint: change in TMS from baseline to week 26 compared with placebo: did not meet the primary endpoint
[1]; all doses, week 26
  TMS in the PRIDE-HD study: showed improvement at all doses at week 26, but did not reach statistical significance
[2]; 45 mg bid, Week 26, ALL
  Change from baseline in PBA Depressed Mood, Severity×Frequency, Δ to placebo: −0.29
[2]; 45 mg bid, Week 26, ALL, p value 0.2864
  PBA Disoriented Behavior, Severity×Frequency, change from baseline, Δ to placebo: −0.2
[2]; 45 mg bid, Week 26, ALL, p value 0.8081
  PBA Obsessive-Compulsive, Severity×Frequency, change from baseline, Δ to placebo: 0.1
[2]; [3]
  Change from baseline in PBA Depressed Mood, Severity×Frequency, Δ to placebo: −0.63
[2]; 45 mg bid, Week 26, Stage 1 BL TFC 11-13, p value 0.0035
  PBA Obsessive-Compulsive, Severity×Frequency, change from baseline, Δ to placebo: −2.11
[2]; 45 mg bid, Week 26, Stage 1 BL TFC 11-13, p value 0.0381
  PBA Disoriented Behavior, Severity×Frequency, change from baseline, Δ to placebo: −0.19
[2]; 45 mg bid, Week 52, ALL
  Change from baseline PBA Irritability, Severity×Frequency, Δ to placebo: −1.03
[2]; 45 mg bid, Week 52, ALL, p value 0.5733
  PBA Obsessive-Compulsive, Severity×Frequency, change from baseline, Δ to placebo: −0.24
[2]; 45 mg bid, Week 52, BL TFC<7
  PBA Irritability, Severity×Frequency, change from baseline, Δ to placebo: −2.42
[2]; 45 mg bid, Week 52, BL TFC≥7, p value 0.1789
  PBA Irritability, Severity×Frequency, change from baseline, Wk 52 Δ to placebo: −0.59
[2]; 45 mg bid, Week 52, Stage 1 BL TFC 11-13, p value 0.007
  PBA Obsessive-Compulsive, Severity×Frequency, change from baseline, Δ to placebo: −2.73
[2]; 45 mg bid, Week 52, Stage 3-5 BL TFC 0-6
  PBA Irritability, Severity×Frequency, change from baseline, Δ to placebo: −2.42
[2]; 67.5 mg bid, Week 26, ALL
  Change from baseline in PBA Depressed Mood, Severity×Frequency, Δ to placebo: −0.65
[2]; 67.5 mg bid, Week 26, ALL, p value 0.1357
  PBA Disoriented Behavior, Severity×Frequency, change from baseline, Δ to placebo: −0.28
[2]; 67.5 mg bid, Week 26, ALL, p value 0.2512
  PBA Obsessive-Compulsive, Severity×Frequency, change from baseline, Δ to placebo: −0.45
[2]; [4]
  Change from baseline in PBA Depressed Mood, Severity×Frequency, Δ to placebo: −2.01
[2]; 67.5 mg bid, Week 26, Stage 1 BL TFC 11-13, p value 0.0035
  PBA Obsessive-Compulsive, Severity×Frequency, change from baseline, Δ to placebo: −2.03

Source: patent US11207310B2 (PRILENIA NEUROTHERAPEUTICS LTD., priority 2016, dated 2021)
